Results published in patent US9668482B1, “Fused heterocyclic compound and pest control application thereof” (Sumitomo Chemical Company, Limited, priority 2014, dated 2017).

Legend:
Assay type in all cases: in vivo
[1] = tested on: American cockroaches (Periplaneta americana); assay: Test Example 14: American cockroach, topical application, comparison with compound 112; details: 1.0 μL topical, 7 days after treatment
Method: The compound 112 (hereinafter, referred to as “compound 112”), described in Table 40 of WO 2013/018928 pamphlet, and the present compound 1 were dissolved in acetone and then the acetone solutions of the designated concentration were prepared.
(§1) A droplet (1.0 μL) of the solution was topically applied onto the ventral prothorax of each female American cockroaches (Periplaneta americana). Then, the treated individuals were transferred to a clean polyethylene cup (bottom diameter: 12 cm, height: 10 cm) with some food and water. Each treatment consisted of 2 replications of 5 roaches/polyethylene cup. The mortality was determined on 7 days after treatment at 25° C. Mortality of insects (%)=(Number of dead insects/Number of tested insects)×100

[2] = tested on: American cockroaches (Periplaneta americana); assay: Test Example 13: American cockroach, topical application of 10% w/v acetone solution; details: 1.0 μL topical on ventral prothorax, females, 7 days, 25° C.
Method: The present compounds 1 and 2 were dissolved in acetone and then the 10% w/v acetone solutions were prepared.
as §1, with “cockroaches/polyethylene” for “roaches/polyethylene”

[3] = tested on: housefly (Musca domestica); assay: Test Example 8: housefly, treated filter paper with sucrose bait; details: 500 ppm, 0.7 mL on filter paper, female adults, after 24 hours
Method: Each of the present compounds 1 to 3, 5, 7, 8, 11, 13 to 16, 21 and 22 was made to a formulation according to the Formulation example 5 and was then diluted with water so that the active ingredient concentration was set to 500 ppm to prepare the diluted solution. The bottom of the polyethylene cup having 5.5 cm diameter was matted with the same size of a filter paper, and 0.7 mL of the diluted solution was added dropwise to the filter paper and 30 mg sucrose as bait was placed in the cup uniformly. Ten (10) heads of female adult housefly (Musca domestica) were released into the polyethylene cup and the cup was covered with the lid. After 24 hours, the life and death of housefly was examined and the number of died insects was counted and the mortality of insects was calculated by the following equation. Mortality of insects (%)=(Number of dead insects/Number of tested insects)×100

[4] = tested on: German cockroach (Blattella germanica); assay: Test Example 9: German cockroach, treated filter paper with sucrose bait; details: 500 ppm, 0.7 mL on filter paper, male adults, after 6 days
Method: Each of the present compounds 1 to 3, 5, 7, and 13 was made to a formulation according to the Formulation example 5 and was then diluted with water so that the active ingredient concentration was set to 500 ppm to prepare the diluted solution. The bottom of the polyethylene cup having 5.5 cm diameter was matted with the same size of a filter paper, and 0.7 mL of the diluted solution was added dropwise to the filter paper and 30 mg sucrose as bait was placed in the cup uniformly. Two (2) heads of male adult German cockroach (Blattella germanica) were released into the polyethylene cup and the cup was covered with the lid. After 6 days, the life and death of German cockroach was examined and the number of died insects was counted and the mortality of insects was calculated by the following equation. Mortality of insects (%)=(Number of dead insects/Number of tested insects)×100

SMILES: CCS(=O)(=O)c1cc(-c2ncccn2)cnc1-c1nc2cc(C(F)(F)F)cnc2n1C [Compound 112]
- Morality (%) ([1]; concentration 2 w/v%): 70%
- Morality (%) ([1]; concentration 4 w/v%): 100%

SMILES: CCS(=O)(=O)c1ccc(-n2cnc(Cl)n2)nc1-c1nc2cc(C(F)(F)F)cnc2n1C [compound 2]
- Mortality of insects [2]: 100%

SMILES: CCS(=O)(=O)c1ccc(-n2cnc(C(F)(F)F)n2)nc1-c1nc2cc(C(F)(F)F)cnc2n1C [compound 5]
- Mortality of insects [3]: 100%
- Mortality of insects [4]: 100%

SMILES: CCS(=O)(=O)c1ccc(-n2cnc(SC)n2)nc1-c1nc2cc(C(F)(F)F)cnc2n1C [compound 7]
- Mortality of insects [3]: 100%
- Mortality of insects [4]: 100%

SMILES: CCS(=O)(=O)c1ccc(-n2cnc(S(C)(=O)=O)n2)nc1-c1nc2cc(C(F)(F)F)cnc2n1C [compound 8]
- Mortality of insects [3]: 100%

SMILES: CCS(=O)(=O)c1ccc(-n2cnc(C(=O)OC)n2)nc1-c1nc2cc(C(F)(F)F)cnc2n1C [compound 11]
- Mortality of insects [3]: 100%

SMILES: CCSc1ccc(-n2cncn2)nc1-c1nc2cc(C(F)(F)F)cnc2n1C [compound 13]
- Mortality of insects [4]: 100%

SMILES: CC[S+]([O-])c1ccc(-n2cnc(C(F)(F)F)n2)nc1-c1nc2cc(C(F)(F)F)cnc2n1C (stereo not drawn) [compound 21]
- Mortality of insects [3]: 100%

SMILES: CC[S+]([O-])c1ccc(-n2cnc(SC)n2)nc1-c1nc2cc(C(F)(F)F)cnc2n1C (stereo not drawn) [compound 22]
- Mortality of insects [3]: 100%
